Read-outs that look alike come from different tables or passages of the source.
Experiments:
Assay type in all cases: in vivo
Ctenocephalides Felis [1] = assay: Insecticidal test for Ctenocephalides felis, Test Example 3 (dry film in glass tube, 0.96 ml, Table A5); conditions: adults of Ctenocephalides felis, after 24 hours of exposure, in triplicate
Procedure: Insecticidal Test for Ctenocephalides felis
0.96 ml of a solution of acetone, the active ingredient, prepared to the prescribed concentration was added dropwise to a glass tube with a flat bottom (internal diameter: 3.6 cm, height: 12 cm), and the solvent was evaporated at room temperature to form a dry film of the agent on the bottom surface. About 10 adults of Ctenocephalides felis per glass tube were added, and they were contact-exposed to the test compound. After 24 hours of the exposure, the conditions of the adults were examined and classified into “alive” and “dead (including a moribund condition)” to determine the death rate was determined (in triplicate).
As the comparative compounds, the following Compounds (D) and (E) disclosed in WO2009/080203, and fipronil were used.

Ctenocephalides Felis [2] = assay: Insecticidal test for Ctenocephalides felis, Test Example 1 (dry film in glass tube, 0.5 ml, Table A4); conditions: for pest or weed control at 0.1 µg/mL: Ctenocephalides felis, read-out: death rate
Procedure: Insecticidal Test for Ctenocephalides Felis
0.5 ml of a solution of acetone, the active ingredient, prepared to the prescribed concentration was added dropwise to a glass tube with a flat bottom (internal diameter: 2.6 cm, bottom area: 5.3 cm^2, height: 12 cm), and the solvent was evaporated at room temperature to form a dry film of the agent on the bottom surface. About 10 adults of Ctenocephalides Felis per glass tube were added, and the adults were contact-exposed to the test compound. After 24 hours of the exposure, the conditions of the adults were examined and classified into “alive” and “dead (including a moribund condition)” to determine the death rate (in triplicate).
As the comparative compounds, the following Compounds (A), (B), and (C) disclosed in WO2009/080203, and fipronil were used.

Rhipicephalus sanguineus = assay: Insecticidal test for Rhipicephalus sanguineus (treated glass petri dish, Table A6); conditions: adults of Rhipicephalus sanguineus, 18 hour exposure, examined after 48 hours, in single
Procedure: Insecticidal Test for Rhipicephalus sanguineus
0.5 ml of a solution of acetone, the active ingredient, prepared to the prescribed dose was added dropwise into a glass petri dish with a diameter of 10 cm, and the acetone was evaporated at room temperature. About 10 adults of Rhipicephalus sanguineus per dish were added, and the dish was covered by another glass petri dish that was treated with the active ingredient in the same manner described above. After 18 hour exposure to the test substance, the adults were transferred into a glass petri dish that was not treated with the active ingredient. After 48 hours of the exposure, the conditions of the adults were examined and classified into “alive” and “dead (including a moribund condition)” to determine the death rate (in single).
As the comparative compounds, said Compounds (B), (C), and (D), and the following Compound (F) disclosed in WO2009/080203, and fipronil were used.

Choristoneura magnanima = assay: Pesticidal test against Choristoneura magnanima (artificial feed dip); conditions: 144 h, concentration 1 ppm, 2-stage larvae, examined after 6 days, 25° C., read-out: pesticidal rate
How it was run: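 Thin artificial feed slices dipped 30 s in compound solution at a set concentration, air-dried, then offered to 2nd-stage larvae held at 25° C. Living and dead larvae counted after 6 days; five larvae per group, two replicates.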

Ctenocephalides Felis [3] = assay: Insecticidal test for Ctenocephalides felis, Test Example 1 (dry film in glass tube, 0.5 ml, Table A4); conditions: adults
Musca domestica = assay: Pesticidal test against Musca domestica (petri dish dry film); conditions: 24 h, concentration 100 ppm, female adults, examined after 1 day, 25° C., read-out: pesticidal rate
How it was run: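 Dry film from 1 ml acetone solution of compound at a predetermined concentration, air-dried in a 9 cm petri dish; female adult flies released and dish capped. Held at 25° C; living and dead counted after 1 day. Five insects per group, two replicates.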

Helicoverpa armigera = assay: Pesticidal test against Helicoverpa armigera (cabbage leaf disk dip); conditions: foliar, 72 h, concentration 10 ppm, 2-stage larvae, examined after 3 days, 25° C., read-out: pesticidal rate
How it was run: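 Cabbage leaf disks were dipped for 30 s in test solution at a set concentration and air-dried. Second-instar larvae were placed one per hole and held at 25 °C, with live and dead counts taken after 3 days. Five larvae per group were tested in two replicates.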

Spodoptera litura = assay: Pesticidal test against Spodoptera litura (cabbage leaf dip); conditions: foliar, 144 h, concentration 1 ppm, 2-stage larvae, examined after 6 days, 25° C., read-out: pesticidal rate
How it was run: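 Cabbage leaf pieces dipped 30 seconds in compound solution at a predetermined concentration and air-dried, then offered to second-stage larvae, five per group in two replicates. Held at 25° C. Living and dead larvae counted after 6 days.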

Laodelphax striatellus = assay: Pesticidal test against Laodelphax striatellus (rice seedling spray); conditions: 144 h, concentration 100 ppm, 3-stage larvae, examined after 6 days, 25° C., read-out: pesticidal rate
How it was run: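 Rice seedlings sprayed with 2.5 ml acetone solution of compound at a predetermined concentration, air-dried, then infested with third-stage Laodelphax striatellus larvae in capped water-containing tubes at 25 °C. Living and dead insects counted after 6 days; ten larvae per group, two replicates.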

Plutella xylostella = assay: Pesticidal test against Plutella xylostella (cabbage leaf dip); conditions: foliar, 144 h, concentration 1 ppm, 2-stage larvae, examined after 6 days, 25° C., read-out: pesticidal rate
How it was run: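 Cabbage leaf pieces dipped 30 s in test solution at a predetermined concentration, air-dried, then offered to 2nd-instar larvae, five per group in duplicate. Held at 25° C; living and dead larvae counted after 6 days.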

Coptotermes formosanus = assay: Pesticidal test against Coptotermes formosanus (treated filter paper); conditions: 120 h, concentration 30 ppm, examined after 5 days of treatment, 28° C., read-out: pesticidal rate
Procedure: Pesticidal Test against Coptotermes formosanus
20 μl of an acetone solution in which a test compound had been prepared at a predetermined concentration was added dropwise to the filter paper having a diameter of […] included in a polypropylene cup, and air-dried, and then 20 μl of water was added thereto. Coptotermes formosanus was released and the cup was capped. They were left to stand in a thermostatic chamber at 28° C., and the numbers of the living pests and the dead pests were examined after 5 days of treatment. The test was carried out with ten larvae per group in two replicates.

Blattella germanica = assay: Pesticidal test against Blattella germanica (petri dish dry film); conditions: 24 h, concentration 100 ppm, female adults, examined after 1 day, 25° C., read-out: pesticidal rate
How it was run: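 Acetone solution of test compound at a predetermined concentration dried as a film in a 9 cm petri dish; female adult cockroaches released onto it and kept at 25° C. Living and dead counted after 1 day; five insects per group, two replicates.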

Adoxophyes honmai = assay: Pesticidal test against Adoxophyes honmai (artificial feed dip); conditions: 144 h, concentration 10 ppm, 2-stage larvae, examined after 6 days, 25° C., read-out: pesticidal rate
How it was run: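 Thin artificial feed slices dipped 30 s in test solution at a predetermined concentration, air-dried, then offered to 2nd-stage larvae. Kept at 25° C; live and dead larvae counted after 6 days. Five larvae per group, two replicates.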

Structure (SMILES) | death rate (Ctenocephalides Felis [1]; 0.03 μg/ml) | death rate (Ctenocephalides Felis [1]; 0.1 μg/ml) | pest or weed control at 0.1 µg/mL (Ctenocephalides Felis [2]; 24 h) | death rate (Rhipicephalus sanguineus; 0.0431 mg/m^2) | death rate (Rhipicephalus sanguineus; 0.172 mg/m^2) | death rate (Rhipicephalus sanguineus; 0.673 mg/m^2) | pest or weed control at 1 ppm (Choristoneura magnanima) | effect in the examination after 12 hours of the exposure (Ctenocephalides Felis [3]) | pest or weed control at 100 ppm (Musca domestica) | pest or weed control at 10 ppm (Helicoverpa armigera) | pest or weed control at 1 ppm (Spodoptera litura) | pest or weed control at 100 ppm (Laodelphax striatellus) | pest or weed control at 1 ppm (Plutella xylostella) | pest or weed control at 30 ppm (Coptotermes formosanus) | pest or weed control at 100 ppm (Blattella germanica) | pest or weed control at 10 ppm (Adoxophyes honmai) | pest or weed control at 0.1 µg/mL (Ctenocephalides Felis [2]; concentration 0.1 μg/ml, adults, after 24 hours of the exposure, in triplicate) | speed of effect as compared with the fipronil (Ctenocephalides Felis [2]; adults, compared with fipronil)
N#Cc1nn(-c2c(Cl)cc(C(F)(F)F)cc2Cl)c(N)c1[S+]([O-])C(F)(F)F (stereo not drawn) [fipronil] | 70.0% | 100.0% | 92.1% | 0.0% | 45.5% | 100.0% | – | – | – | – | – | – | – | – | – | – | – | –
CN(C(=O)c1ccccc1)c1cccc(C(=O)Nc2c(Br)cc(C(F)(C(F)(F)F)C(F)(F)F)cc2Br)c1F [7-1104, N-(2,6-dibromo-4-(heptafluoropropan-2-yl)phenyl)-2-fluoro-3-(N-methylbenzamide)benzamide] | – | – | – | – | – | – | ≥ 70% | effective | ≥ 70% | ≥ 70% | ≥ 70% | ≥ 70% | ≥ 70% | ≥ 70% | ≥ 70% | ≥ 70% | 73.3% | immediate effect

From US8686044B2, “Amide derivative, pest control agent containing the amide derivative, and use of the amide derivative” (Mitsui Chemicals Agro, Inc., priority 2008, dated 2014)
